From patent publication US12060334B2, “3-substituted phenazine derivatives as antimicrobial agents” (University of Florida Research Foundation, Incorporated, priority 2021, dated 2024)
≈ marks a conversion by molar mass, not a printed value. Where “and” joins values, the source holds several entries; their conditions need not be identical. Equal entries are not always repeated. Entries after “also recorded” stand apart in the source; their conditions may differ. Where two headings read alike, the source gives them in different places. Marks after values point to notes of the source that are not given here.

What was measured:
[1] = test system: human red blood cells; assay: Hemolysis assay with red blood cells
Description: Hemolysis assays are used to determine the membrane-lysis activity of a compound, which is of particular interest to this work as membrane-lysing agents (e.g., QACs) can eradicate biofilms.
Cytotoxicity Assay against HEK-293 Cells.^48 The viability of HEK-293 cells was assessed by the MTT assay. The cells were cultured in DMEM medium containing 10% fetal bovine serum and 100 U/mL penicillin and streptomycin. The cells (10^4 cells/well) were seeded onto a 96-well plate and maintained at 37° C. in a humidified incubator under 5% CO2 overnight. […] After incubation at 37° C. for 72 hours, 10 μL of MTT (5 mg/mL) in PBS was added to each well and incubated for 4 hours, followed by the aspiration of the medium. Dimethyl sulfoxide (DMSO, 100 μL) was then added to each well to dissolve the MTT in the wells, and the plate was agitated for 1 hour. The optical density (OD) was measured at 570 nm using a UV/vis microplate spectrophotometer (BioTek). The percent inhibition was calculated as follows: Inhibition (%)=(1−test OD570/non-treated OD570)×100%. The data were analyzed by Origin. Hemolysis Assay with Red Blood Cells. […] The washing was repeated three times with the buffer. In 96-well plate, test compounds were added to the buffer from DMSO stocks. […] The plate was then incubated for 1 hour at 37° C. After incubation, the plate was centrifuged for 5 minutes at 3,500 rpm before 80 μL of the supernatant was transferred to another 96-well plate to obtain an optical density (OD) read at 405 nm. DMSO served as the negative control (0% hemolysis) while Triton X served as the positive control (100% hemolysis) in these experiments. The percent hemolysis was calculated as (OD405 of the compound treated RBCs−OD405 DMSO control)/(OD405 Triton X treated RBCs−OD405 buffer) from three independent experiments.

[2] = test system: MRSA 1; assay: MIC assay against clinical isolate; type: cell-based, S. aureus; settings: Staphylococcus aureus
[3] = test system: MRSA 2; assay: MIC assay against clinical isolate; type: cell-based, S. aureus; settings: Staphylococcus aureus
[4] = test system: HeLa cells; assay: LDH release assay for HeLa cytotoxicity; settings: read-out: HeLa Cell Cytotox. (IC50), 24-h, tested at 25, 50 and 100 μM
[5] = test system: HEK-293 cells; assay: MTT cytotoxicity assay, HEK-293; settings: read-out: HEK-293 Cytotox. (IC50), 72-h
[6] = test system: MRSA-1707; assay: MIC susceptibility assay (broth microdilution); settings: 16 h; for MIC MRSA-1707: planktonic growth inhibition, 37° C.; for MIC: Staphylococcus aureus, MRSA, read-out: MIC MRSA-1707, planktonic growth inhibition, 16 h, 37° C.
Description: (§1) (MIC values were further supported by spectrophotometric readings at OD600). The concentration range tested for each HP compound during this study was 0.05 to 50 μM. DMSO served as our vehicle and negative control in each microdilution MIC assay. DMSO was serially diluted with a top concentration of 0.5% v/v.

[7] = test system: S. aureus 156; assay: MIC assay against clinical isolate; type: cell-based; settings: Staphylococcus aureus, 156, read-out: MIC S. aureus 156
[8] = test system: S. aureus 129; assay: MIC assay against clinical isolate; type: cell-based; settings: Staphylococcus aureus
[9] = test system: MRSA, MRSE and VRE strains; assay: MIC assays, summary statements over several Gram-positive strains; settings: for MICs against all Gram-positive strains in the panel: result in words
Description: as §1

[10] = test system: HepG2 cells; assay: Alamar Blue cytotoxicity assay, HepG2; settings: read-out: Hep G2 Cytotox. (IC50), 24-h
[11] = test system: Mtb CDC1551; assay: microbe, parasite or virus in culture; type: cell-based, Mycobacterium tuberculosis
[12] = test system: S. aureus 138; assay: MIC assay against clinical isolate; type: cell-based; settings: Staphylococcus aureus
[13] = test system: E. faecalis OG1RF; assay: E. faecalis dorsal wound infection model in mice; settings: C57BL/6J mice, topical PEG ointment once a day, day 3
Description: (§2) In separate experiments, wounds were created on the mouse's dorsal mid-section using a biopsy punch to remove the dermal layer. The resulting wound was inoculated with either S. aureus UAMS-1 (1×10^7 CFU/mL), or E. faecalis OG1RF ([…] CFU/mL) to establish infection.
Enterococcus faecalis strain OG1RF was used in animal experiments during these investigations. Seven-week old female C57BL/6J mice were purchased from Jackson Laboratories Ltd. and housed according to the University of Florida's approved IACUC protocol 201709769.
E. faecalis Dorsal Wound Infection Model. […] On day 3 (2 days of treatment) post-infection, animals were euthanized and the wounds aseptically excised using a surgical blade and the tissues homogenized in 1 mL of sterile PBS. The homogenates were serially diluted and plated on trypticase soy (TSA) agar containing rifampicin and fusidic acid for bacterial enumeration.

[14] = test system: E. faecalis OG1RF; assay: MIC susceptibility assay (broth microdilution); settings: Enterococcus faecalis, 16 h, read-out: MIC E. faecalis OG1RF
Description: as §1

[15] = pKa determination by UV-vis spectroscopy; type: physicochemical
Description: (c) pKa determination of select HP analogues.^36 Dissociation constants (pKa) for select HP analogues were determined using UV-vis spectroscopy and the Henderson-Hasselbalch equation. Buffers were prepared using potassium phosphate monobasic (KH2PO4) and sodium phosphate dibasic ([…]) in a 1:1 solution of water:methanol to achieve a pH range of 4.07 to 9.66 (ammonium hydroxide was added to prepare buffer pH over 9.80). Compounds were added from 10 mM stock solutions in dimethyl sulfoxide (25 μL) to 1975 μL of each buffer to each evaluate analogue to yield a final compound concentration of 125 μM. Full spectral scans were performed from 200 to 800 nm in 2 nm increments to determine λmax values for the protonated phenol (HA) and the deprotonated phenolate species (A^−). The change in absorption at each determined λmax in relation to pH was monitored in each buffer and plotted as absorbance versus pH for each species. The pKa was first estimated by determining the pH of the point of intersection of the two linear curves. The visual estimation was confirmed by plotting pH versus log [A^−/HA]. The resulting plot yielded a linear regression line with a Y-intercept corresponding to a calculated pKa value.

[16] = test system: isdB, sfaA, sbnC, MW0695 transcripts in MRSA-1707 biofilms; assay: RT-qPCR of iron uptake genes in MRSA biofilms; settings: 4 h treatment at 1 μM or 1/10×MBEC
[17] = test system: S. aureus 147; assay: MIC assay against clinical isolate; type: cell-based; settings: Staphylococcus aureus, 147; clinical isolate; read-out: MIC S. aureus 147
[18] = test system: MRSA-44; assay: MIC susceptibility assay (broth microdilution); settings: Staphylococcus aureus, 16 h, read-out: MIC MRSA-44
Description: as §1

[19] = test system: S. aureus UAMS-1; assay: S. aureus dermal (dorsal) wound infection model in mice; settings: BALB/c mice, topical 2% PEG ointment every 12 hours, three consecutive days
Description: as §2
Staphylococcus aureus strain UAMS-1, a well-characterized antibiotic susceptible clinical isolate commonly used to study the organism's biofilm formation and colonization properties, was used in animal experiments during these studies.^59 Female BALB/c mice 4 to 6 weeks of age were obtained from Charles River Laboratories International, Inc. (Wilmington, MA) and housed individually according to approved University of Rochester Medical Center Council on Animal Research (UCAR) protocol UCAR-101864/2017-022.
S. aureus Dermal Wound Infection Model. The effects of ointment compilations were evaluated for in vivo antimicrobial activity using a dermal wound infection mouse model, as previously described.^52 Briefly, mice were anesthetized by intraperitoneal injection with a mixture of 100 mg kg^−1 Ketamine (Hospira Inc., Lake Forest IL) and 10 mg kg^−1 Xylazine (Lloyd Laboratories, Shenandoah IA) in PBS. Two mg kg^−1 meloxicam (Henry Schein Animal Health, Portland, ME) was administered prior to dermal wounding. […]

[20] = test system: J774 MΦ; assay: Alamar Blue cytotoxicity assay, J774 macrophages; settings: read-out: J774 MΦ Cytotox. (IC50), 24-h
[21] = test system: isdB, sfaA, sbnC, MW0695 transcripts in MRSA-1707 biofilms; settings: at 5 μM, reported earlier; cited from earlier work
[22] = test system: E. faecalis OG1RF biofilms; assay: Calgary Biofilm Device (CBD) assay; settings: Enterococcus faecalis, OG1RFBIOFILMS, read-out: E.faecalis OG1RF MBC
[23] = test system: MRSA-1707 biofilms; assay: Calgary Biofilm Device (CBD) assay; settings: Staphylococcus aureus, read-out: MRSA-1707 MBC
[24] = test system: MRSE 35984 biofilms; assay: Calgary Biofilm Device (CBD) assay; settings: for MBC: Staphylococcus epidermidis, MRSE, read-out: MRSE 35984 MBC
[25] = test system: MRSE 35984; assay: MIC susceptibility assay (broth microdilution); settings: Staphylococcus epidermidis, MRSE, 16 h, read-out: MIC MRSE 35984
Description: as §1

[26] = test system: S. aureus; assay: Antibacterial MIC, initial phenazine collection; type: cell-based; settings: Staphylococcus aureus; initial discovery; read-out: MIC against S. aureus
[27] = test system: S. epidermidis; assay: Antibacterial MIC, initial phenazine collection; type: cell-based; settings: Staphylococcus epidermidis; initial discovery; read-out: MIC against S. epidermidis
[28] = test system: S. aureus strain ATCC 29213; assay: MIC against methicillin-susceptible strain; type: cell-based; settings: Staphylococcus aureus, ATCC29213; strain susceptible to methicillin
[29] = test system: VRE 700221 biofilms; assay: Calgary Biofilm Device (CBD) assay; settings: Enterococcus, read-out: VRE 700221 MBC
[30] = test system: MRSA 44 biofilms; assay: Calgary Biofilm Device (CBD) assay; settings: biofilm eradication in CBD assay
[31] = Mycobacterium tuberculosis, CDC1551, 120 h

| Compound | % Hemolysis at 200 μM ([1]; human RBCs, 1 hour, 37° C.) [%] | MIC [2] [µM] | MIC [3] [µM] | MIC [7] [µM] | MIC [8] [µM] | MIC [12] [µM] | MIC [14] [µM] | MIC [17] [µM] | MIC [18] [µM] | MBC [22] [µM] | MIC [25] [µM] | MIC [6] [µM] | also measured |
| --- | --- | --- | --- | --- | --- | --- | --- | --- | --- | --- | --- | --- | --- |
| Cc1cccc2nc3c(O)c(Br)c(Cl)c(Br)c3nc12 [Compound 29, 2,4-Dibromo-3-chloro-6-methylphenazin-1-ol] | ≤1 | 0.06 (≈ 0.0241 µg/mL) | 0.12 (≈ 0.0483 µg/mL) | 0.08 (≈ 0.0322 µg/mL) | 0.12 (≈ 0.0483 µg/mL) | 0.08 (≈ 0.0322 µg/mL) | 0.3 (≈ 0.121 µg/mL) | 0.12 (≈ 0.0483 µg/mL) | 0.08 (≈ 0.0322 µg/mL) |  |  |  | IC50 [4]: > 100 µM; IC50 [5]: 18.3 ± 5.8 µM; MIC MRSA-1707 [6]: 0.08^a μM; MIC ([9]; read-out: MIC against MRSA, MRSE and VRE strains): 0.05 to 0.1 µM (≈ 0.0201 to 0.0402 µg/mL); MIC ([9]; read-out: MIC against MRSA/MRSE strains): 0.075 µM (≈ 0.0302 µg/mL); MICs against all Gram-positive strains in the panel [9]: sub-micromolar; IC50 [10]: > 200 µM; MIC [11]: 1.59 µM (≈ 0.64 µg/mL); MIC [11, 31]: 1.59 µM (≈ 0.64 µg/mL); log10 reduction of E. faecalis OG1RF compared to vehicle control [13]: 1.73 log10; pKa [15]: 6.79; iron starvation / up-regulation of iron uptake genes in MRSA-1707 biofilms [16]: induction of iron starvation; also recorded: up-regulating iron uptake genes; also recorded: induced rapid iron starvation; also recorded: rapidly induce iron starvation; log10 reduction in CFU per lesion of S. aureus UAMS-1 compared to vehicle [19]: 0.82 log10; IC50 [20]: > 200 µM |
| O=C(O)CN(CCN(CC(=O)O)CC(=O)O)CC(=O)O [EDTA, ethylenediaminetetraacetic acid, reference compound] |  |  |  |  |  |  | 500 (≈ 146 µg/mL) |  | 125 (≈ 36.5 µg/mL) | > 2000 |  |  | % Hemolysis at 200 μM ([1]; human, 1 h, pH 7.2): ≤1%; up-regulation of panel of iron uptake genes [21]: did not upregulate this panel of iron uptake genes; MBC [23]: > 2000 µM; MBC [24]: 1000 µM (≈ 292 µg/mL) |
| Oc1c(Br)ccc2nc3ccccc3nc12 [Compound 1, 2-bromo-1-hydroxyphenazine, reference compound] |  |  |  |  |  |  | 18.8 (≈ 5.17 µg/mL) |  | 3.13 (≈ 0.861 µg/mL) |  | 3.13 (≈ 0.861 µg/mL) | 3.13 (≈ 0.861 µg/mL) | MIC [26]: 6.25 µM (≈ 1.72 µg/mL); MIC [27]: 6.25 µM (≈ 1.72 µg/mL) |
| COc1cccc(OC)c1C(=O)N[C@@H]1C(=O)N2[C@@H]1SC(C)(C)[C@@H]2C(=O)O [Methicillin, reference compound] |  | 37.5 (≈ 14.3 µg/mL) | > 100 | 37.5 (≈ 14.3 µg/mL) | 37.5 (≈ 14.3 µg/mL) | 37.5 (≈ 14.3 µg/mL) |  | 6.25 (≈ 2.38 µg/mL) |  |  |  |  | MIC [28]: 0.78 µM (≈ 0.297 µg/mL) |
| Oc1c(Br)c(Br)c(Br)c2nc3ccccc3nc12 [Compound 150] |  |  |  |  |  |  |  |  |  |  | 0.3 (≈ 0.13 µg/mL) | 0.1 (≈ 0.0433 µg/mL) | melting point: 222 to 224 °C |
| c1ccc(CN(CCN(Cc2ccccn2)Cc2ccccn2)Cc2ccccn2)nc1 [TPEN, N,N,N′,N′-tetrakis(2-pyridinylmethyl)-1,2-ethanediamine, reference compound] | ≤1 |  |  |  |  |  | 46.9 (≈ 19.9 µg/mL) |  | 46.9 (≈ 19.9 µg/mL) | 500 (≈ 212 µg/mL) |  | 46.9 (≈ 19.9 µg/mL) | MBC [29]: 188 µM (≈ 79.8 µg/mL); up-regulation of panel of iron uptake genes [21]: did not upregulate this panel of iron uptake genes; MBC [23]: 375 µM (≈ 159 µg/mL) |
| Oc1c(Br)c(Cl)c(Br)c2nc3c(Cl)cc(Cl)cc3nc12 [Compound 34, 2,4-Dibromo-3,6,8-trichlorophenazin-1-ol] | ≤1 | 1.25 (≈ 0.572 µg/mL) | 0.94 (≈ 0.43 µg/mL) | 0.47 (≈ 0.215 µg/mL) | 0.63 (≈ 0.288 µg/mL) | 0.94 (≈ 0.43 µg/mL) | 0.3 (≈ 0.137 µg/mL) | 0.47 (≈ 0.215 µg/mL) | 0.15 (≈ 0.0686 µg/mL) | 3.13 (≈ 1.43 µg/mL) | ≤ 0.05 | 0.59 (≈ 0.27 µg/mL) | MBC [29]: 0.39 µM (≈ 0.178 µg/mL); IC50 [4]: > 100 µM; MIC MRSA-1707 [6]: 0.59^a μM and 0.59 μM; MICs against all Gram-positive strains in the panel [9]: sub-micromolar; IC50 [10]: > 200 µM; MIC [11, 31]: 0.8 µM (≈ 0.366 µg/mL); MRSA 44 MBEC [30]: 6.25^b/6.25^b μM; log10 reduction of viable MRSE biofilm cells ([24]; CFU counts from CBD pegs, at the MBEC value): 3.18±0.40 log10; MBC [24]: 0.59 µM (≈ 0.27 µg/mL); log10 reduction of viable CFUs, MRSE 35984 biofilm ([24]; at 3.13 μM): ~5 log10; IC50 [20]: > 200 µM |
